Read-outs that look alike come from different tables or passages of the source.
Tested on: yeast cells
Settings: for life span: yeast replicative life span
Protocol: FIG. 2 illustrates replicative life span (“RLS”) analysis in yeast. […] A mother cell is a yeast cell that has produced one or more daughter cells. […] The total number of mitotic divisions completed by a given mother cell is the replicative life span for that mother cell. One indicator of senescence in yeast is the inability to produce daughter cells.
A large-scaled, life-span analysis is performed as follows. Approximately three days before initiating a life-span-determination assay, a set of 95 strains contained in a yeast alpha-haploid-deletion collection (Open Biosystems), is transferred to a 96-well plate containing YPDagar using a FX robot, so that each strain occupies one well of a 96-well plate. Concurrently, “wildtype” reference cells (BY4742) are plated within an empty well of the 96-well test plate. For 1-2 days, plated cells are allowed to grow on rich medium, such as YPD, at 30° C. Cells are patched onto life-span-measuring plates containing YPD so that approximately 12 strains are plated per plate the night, or approximately 12 hours, before initiating life-span analysis. A life-span experiment is initiated by gridding a region of the plate distal to growing cells, to which 5 cells of each strain of 12 strains are transferred by micromanipulation. Cells are incubated for two hours at 30° C. Then, virgin daughter cells of each deletion variant cell are selected, and original mother cells are removed. Such virgin daughter cells are monitored for de novo production of daughters at 2-3 hour intervals. Produced daughters are individually removed, and tabulated. Mother cells are placed back at 30° C. to allow continued growth. During evening hours, cells are moved to 4° C. so that the cell division rate is reduced to one cell division per evening. The following day, cells are placed at 30° C. to resume growth. This process is continued for a period of time, approximately two weeks, to allow cells of each variant strain to exhaust its proliferative potential. The total number of daughter cells produced by each mother variant cell is tabulated, and determined RLS values are entered into a database.

Question: How did the life span (50 uM, preliminary experiments) turn out when `CS(=N)(=O)CC[C@H](N)C(=O)O` (stereo partly drawn) [MSX, methionine sulfoximine] was run?
Answer: Its life span is “significantly increases life span”.

Question: And the life span (100 uM, preliminary experiments)?
Answer: Its life span is “significantly increases life span”.

Question: And the “increase in mean replicative life span” value (1 mM (maximal life span extension), preliminary experiments)?
Answer: The value was 25-30%.

Question: And the life span (1 mM, preliminary experiments)?
Answer: The life span was “significantly increases life span”.

Question: What about the life span (2.5 mM, preliminary experiments) of the same compound?
Answer: Its life span is “significantly increases life span”.

Question: And the “replicative life span in yeast” value (exposure of yeast cells to MSX)?
Answer: The value was “extends replicative life span”.

— US7622271B2, “Identification of aging genes through large-scale analysis” (University of Washington, priority 2004, dated 2009)
